Test results from ChEMBL document CHEMBL1201862, “PubChem BioAssay data set” (2004).
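Five compound concentrations were applied to cells in 96-well plates for 48 hours; endpoints were derived by simple linear interpolation of the resulting dose-response curve. Abbreviation: GI50, concentration required for 50% inhibition of growth.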 Calls of active or inactive are those of the source. Rule as the data show it: active = GI50 up to about 1.1 µM and inactive = higher.

How the values were obtained:
Test in all cases: inhibition of tumour cell growth, NCI panel, 48 h
NCI-H226 = system: NCI-H226
A498 = system: A498
IGROV-1 = system: IGROV-1
HL-60 = system: HL-60
SF-268 = system: SF-268
PC-3 = system: PC-3
LOX IMVI = system: LOX IMVI
SK-MEL-2 = system: SK-MEL-2
RPMI-8226 = system: RPMI-8226
786-0 = system: 786-0
UACC-257 = system: UACC-257
SF-539 = system: SF-539
CCRF-CEM = system: CCRF-CEM
EKVX = system: EKVX
SW-620 = system: SW-620
M14 = system: M14
MDA-MB-435 = system: MDA-MB-435
OVCAR-4 = system: OVCAR-4
NCI/ADR-RES = system: NCI/ADR-RES
HCT-15 = system: HCT-15

Compound | GI50 (NCI-H226) | GI50 (A498) | GI50 (IGROV-1) | GI50 (HL-60) | GI50 (SF-268) | GI50 (PC-3) | GI50 (LOX IMVI) | GI50 (SK-MEL-2) | GI50 (RPMI-8226) | GI50 (786-0) | GI50 (UACC-257) | GI50 (SF-539) | GI50 (CCRF-CEM) | GI50 (EKVX) | GI50 (SW-620) | GI50 (M14) | GI50 (MDA-MB-435) | GI50 (OVCAR-4) | GI50 (NCI/ADR-RES) | GI50 (HCT-15) [µM]
O=C1C(=c2cc3c(c4ccccc24)=NC24CCCCC2C(c2ccccc2)C=C(c2ccccc2)N34)C(=O)c2ccccc21 (stereo not drawn) | 44.3 µM (inactive) | > 100 µM (inactive) | 3.08 µM (inactive) | 27.7 µM (inactive) | 30.3 µM (inactive) | 25.8 µM (inactive) | 34.2 µM (inactive) | 42.5 µM (inactive) | 11.4 µM (inactive) | 48.6 µM (inactive) | > 100 µM (inactive) | 41.1 µM (inactive) | 15.6 µM (inactive) | 12.7 µM (inactive) | 37.7 µM (inactive) | 44 µM (inactive) | 22 µM (inactive) | 15.5 µM (inactive) |  | 
C=C1CC[C@H]2C(=O)OC(c3ccoc3)C[C@]2(C)C/C=C\C=C/1C(=O)OC (stereo partly drawn) | > 25 µM (inactive) | > 25 µM (inactive) | > 25 µM (inactive) |  |  | > 25 µM (inactive) | > 25 µM (inactive) | > 25 µM (inactive) |  | > 25 µM (inactive) | > 25 µM (inactive) | > 25 µM (inactive) |  | > 25 µM (inactive) | > 25 µM (inactive) | > 25 µM (inactive) |  | > 25 µM (inactive) | 13.2 µM (inactive) | > 25
Cc1cccc2c1Oc1ccccc1C2NC(=O)c1ccc([N+](=O)[O-])cc1 (stereo not drawn) | 15.6 µM (inactive) | 76.4 µM (inactive) | > 100 µM (inactive) | > 100 µM (inactive) | 95.3 µM (inactive) | > 100 µM (inactive) | > 100 µM (inactive) | > 100 µM (inactive) | > 100 µM (inactive) | > 100 µM (inactive) | > 100 µM (inactive) |  | > 100 µM (inactive) | > 100 µM (inactive) | > 100 µM (inactive) | > 100 µM (inactive) |  | 32.2 µM (inactive) | 79.4 µM (inactive) | > 100
O=C1Nc2ccccc2C1Cc1ccc([N+](=O)[O-])cc1 (stereo not drawn) | > 100 µM (inactive) |  | 21.6 µM (inactive) | 5.57 µM (inactive) | > 100 µM (inactive) | 74 µM (inactive) | > 100 µM (inactive) | > 100 µM (inactive) | 34.8 µM (inactive) | > 100 µM (inactive) | > 100 µM (inactive) |  | 20.1 µM (inactive) | > 100 µM (inactive) | > 100 µM (inactive) | > 100 µM (inactive) | > 100 µM (inactive) | 84.5 µM (inactive) | > 100 µM (inactive) | > 100
c1cncc(-c2ncc3cccnc3n2)c1 | > 100 µM (inactive) | > 100 µM (inactive) | > 100 µM (inactive) | > 100 µM (inactive) |  | > 100 µM (inactive) | > 100 µM (inactive) | > 100 µM (inactive) | > 100 µM (inactive) | > 100 µM (inactive) | > 100 µM (inactive) | > 100 µM (inactive) | > 100 µM (inactive) | > 100 µM (inactive) | > 100 µM (inactive) |  |  | > 100 µM (inactive) | > 100 µM (inactive) | > 100
Cc1cn([C@H]2CN(O)C[C@@H](CO)O2)c(=O)[nH]c1=O | > 100 µM (inactive) | > 100 µM (inactive) | > 100 µM (inactive) | > 100 µM (inactive) | > 100 µM (inactive) | > 100 µM (inactive) |  | > 100 µM (inactive) | > 100 µM (inactive) | > 100 µM (inactive) | > 100 µM (inactive) | > 100 µM (inactive) |  | > 100 µM (inactive) | > 100 µM (inactive) | > 100 µM (inactive) | > 100 µM (inactive) | > 100 µM (inactive) |  | > 100
Brc1ccc(-c2cc(-c3ccc4c(c3)OCO4)c(-c3cccs3)n2Cc2ccccc2)cc1 |  |  | > 100 µM (inactive) | > 100 µM (inactive) | > 100 µM (inactive) | > 100 µM (inactive) |  | > 100 µM (inactive) | > 100 µM (inactive) | > 100 µM (inactive) | > 100 µM (inactive) | > 100 µM (inactive) | > 100 µM (inactive) | > 100 µM (inactive) | > 100 µM (inactive) | > 100 µM (inactive) | > 100 µM (inactive) | > 100 µM (inactive) | > 100 µM (inactive) | > 100
CN(C)C(=S)/N=c1\ss/c(=N\S(=O)(=O)c2ccccc2)n1C | > 100 µM (inactive) | > 100 µM (inactive) | > 100 µM (inactive) | > 100 µM (inactive) | > 100 µM (inactive) |  | > 100 µM (inactive) | > 100 µM (inactive) | > 100 µM (inactive) | > 100 µM (inactive) | > 100 µM (inactive) | > 100 µM (inactive) | > 100 µM (inactive) | > 100 µM (inactive) | > 100 µM (inactive) | > 100 µM (inactive) |  | > 100 µM (inactive) |  | > 100
COC(=O)c1cc(C)ccc1/C=C1\Cc2cc(C)c(C)cc2C1=O | > 100 µM (inactive) | 68.9 µM (inactive) | > 100 µM (inactive) | > 100 µM (inactive) | 41.1 µM (inactive) | > 100 µM (inactive) | > 100 µM (inactive) | 60.3 µM (inactive) | > 100 µM (inactive) | 55.8 µM (inactive) | > 100 µM (inactive) | > 100 µM (inactive) | 0.108 µM (active) | > 100 µM (inactive) | > 100 µM (inactive) | > 100 µM (inactive) |  | > 100 µM (inactive) |  | > 100
Nc1ccn(CCOC(=O)c2ccccc2)c(=O)n1 | > 100 µM (inactive) | > 100 µM (inactive) | > 100 µM (inactive) | > 100 µM (inactive) | > 100 µM (inactive) |  | > 100 µM (inactive) | > 100 µM (inactive) | > 100 µM (inactive) | > 100 µM (inactive) | > 100 µM (inactive) | > 100 µM (inactive) | > 100 µM (inactive) | > 100 µM (inactive) | > 100 µM (inactive) | > 100 µM (inactive) |  | > 100 µM (inactive) |  | > 100
SC[C@@H]1COC[C@H](CS)S1 |  |  | > 100 µM (inactive) | > 100 µM (inactive) | > 100 µM (inactive) | > 100 µM (inactive) | > 100 µM (inactive) |  |  | > 100 µM (inactive) | > 100 µM (inactive) | > 100 µM (inactive) | > 100 µM (inactive) | > 100 µM (inactive) | > 100 µM (inactive) | > 100 µM (inactive) | > 100 µM (inactive) | > 100 µM (inactive) |  | > 100
CCOC(=O)[C@@H]1ON2O[C@H](OC3CCCCC3c3ccccc3)C[C@H]3OC(=O)[C@@H]1C32 (stereo partly drawn) | > 100 µM (inactive) | > 100 µM (inactive) | > 100 µM (inactive) |  | > 100 µM (inactive) |  | > 100 µM (inactive) |  | > 100 µM (inactive) | > 100 µM (inactive) | > 100 µM (inactive) | > 100 µM (inactive) | 0.209 µM (active) | > 100 µM (inactive) | > 100 µM (inactive) | > 100 µM (inactive) | > 100 µM (inactive) |  | > 100 µM (inactive) | > 100
